In patent publication US20120202822A1, “COMBINATION” (priority 2009, published 2012):

Tests used:
Format in all cases: cell-based
12R8-1 = assay: Cell Growth Inhibition Assay (Cell Titer Glo, 3 days); conditions: Homo sapiens, 72 h, 12R8-1 (Compound A resistant clone), read-out: IC50, Single Agent (mean ± std)
Procedure: (§1) Melanoma A375 PF11 line was derived from A375 (ATCC). 12R5-1, 12R5-3, 12R8-1, 12R8-3, 16R5-2, 16R6-3 and 16R6-4 are single cell clones derived from mixed populations of A375 PF11 cells that were selected to grow in Compound A to concentrations of 1200 and 1600 nM. All lines were cultured in RPMI 1640 medium containing 10% fetal bovine serum (FBS).
(§2) All cells were cultured for a minimum of 72 hours prior to cell plating. Cells were assayed in a 96-well tissue culture plate (NUNC 136102) of RPMI medium containing 10% FBS for all cells at 1,000 cells per well. Approximately 24 hours after plating, cells were exposed to ten, three-fold serial dilutions of compound or the combination of the two agents at a constant molar to molar ratio of 1:10 Compound A to Compound B in RPMI media containing 10% FBS. Cells were incubated in the presence of compounds for 3 days. ATP levels were determined by adding Cell Titer Glo® (Promega) according to the manufacturer's protocol. Briefly, Cell Titer Glo® was added each plate, incubated for 30 minutes then luminescent signal was read on the SpectraMax L plate reader with a 0.5 sec integration time.
(§3) Inhibition of cell growth was estimated after treatment with compound or combination of compounds for three days and comparing the signal to cells treated with vehicle (DMSO). Cell growth was calculated relative to vehicle (DMSO) treated control wells. Concentration of compound that inhibits 50% of control cell growth (IC50) was interpolated when y=50% of the vehicle control using nonlinear regression with the equation, y=(A+(B−A)/(1+(C/x)̂D))), where A is the minimum response (ymin), B is the maximum response (ymax), C is the inflection point of the curve (EC50) and D is the Hill coefficient.
(§4) Combination effects on potency were evaluated using Combination Index (CI) which was calculated with the back-interpolated IC50 values and the mutually non-exclusive equation derived by Chou and Talalay (Chou T C, Talalay P. Quantitative analysis of dose-effect relationships: the combined effects of multiple drugs or enzyme inhibitors. Adv Enzyme Regul 1984; 22:27-55.) A detailed description of the CI is found above. In general, a CI value <0.9, between 0.9 and 1.1, or >1.1 indicates synergy, additivity and antagonism, respectively. In general, the smaller the CI number, the greater is the strength of synergy.
(§5) The combination effects on the response scale were quantified by Excess Over Highest Single Agent (EOHSA) based on the concept of nonlinear blending as described in detail by Peterson and Novick (2007) and Peterson (2010) [Peterson J J, Novick S J. J Recept Signal Transduct Res 2007; 27(2-3):125-46, Peterson J. Frontiers of Bioscience S2, 483-503. 2010] EOHSA values are defined as increases in improvement (here, in ‘percentage points’ (ppts) difference) produced by the combination over the best single agent at its component dose level for the combination. Details on the calculation of EOHSA can be found above. For single agent and combination treatments, cells were exposed to compounds at a fixed-dose-ratio, and dose response curves were fit to the experimental data and analyzed using regression models. At specified total dose levels of IC50 along the dose response curve, the dose combination (corresponding to IC50) was determined for making EOHSA statistical inferences. More specifically, for a combination drug experiment involving drug 1 at dose d1 and drug 2 at dose d2, (i.e., total dose equals d1+d2) is said to have a positive EOHSA if the mean response at the combination is better than the mean response to drug 1 at dose d1 […] drug 2 at dose d2.

16R5-2 = assay: as above; conditions: Homo sapiens, 72 h, 16R5-2 (Compound A resistant clone), read-out: IC50, Single Agent (mean ± std)
Procedure: as §1, §2, §3, §4, §5

12R5-1 = assay: as above; conditions: Homo sapiens, 72 h, 12R5-1 (Compound A resistant clone), read-out: IC50, Single Agent (mean ± std)
Procedure: as §1, §2, §3, §4, §5

A375PF11 = assay: as above; conditions: Homo sapiens, A375P-F11, 72 h, A375PF11 (BRAF_V600E), read-out: IC50, Single Agent (mean ± std)
Procedure: as §1, §2, §3, §4, §5

12R8-3 = assay: as above; conditions: Homo sapiens, 72 h, 12R8-3 (Compound A resistant clone), read-out: IC50, Single Agent (mean ± std)
Procedure: as §1, §2, §3, §4, §5

16R6-3 = assay: as above; conditions: Homo sapiens, 72 h, 16R6-3 (Compound A resistant clone), read-out: IC50, Single Agent (mean ± std)
Procedure: as §1, §2, §3, §4, §5

12R5-3 = assay: as above; conditions: Homo sapiens, 72 h, 12R5-3 (Compound A resistant clone), read-out: IC50, Single Agent (mean ± std)
Procedure: as §1, §2, §3, §4, §5

16R6-4 = assay: as above; conditions: Homo sapiens, 72 h, 16R6-4 (Compound A resistant clone), read-out: IC50, Single Agent (mean ± std)
Procedure: as §1, §2, §3, §4, §5

[1] = test system: seven Compound A resistant clones derived from the A375 PF11 melanoma cell line; assay: Cell Growth Inhibition Assay, summary over resistant clones; conditions: Homo sapiens, A375P-F11, 72 h, 3 days, read-out: IC50s, Compound B alone, range over clones
Procedure: as §1, §2
Inhibition of cell growth was estimated after treatment with compound or combination of compounds for three days and comparing the signal to cells treated with vehicle (DMSO). Cell growth was calculated relative to vehicle (DMSO) treated control wells. […]

Row | Compound | IC50 (12R8-1) [nM] | IC50 (16R5-2) [nM] | IC50 (12R5-1) [nM] | IC50 (A375PF11) [nM] | IC50 (12R8-3) [nM] | IC50 (16R6-3) [nM] | IC50 (12R5-3) [nM] | IC50 (16R6-4) [nM] | IC50 [1] [nM]
1 | COc1ncc(-c2ccc3nccc(-c4ccnnc4)c3c2)cc1NS(=O)(=O)c1ccc(F)cc1F [Compound B, 2,4-difluoro-N-{2-(methyloxy)-5-[4-(4-pyridazinyl)-6-quinolinyl]-3-pyridinyl}benzenesulfonamide] | 103 ± 16 | 41 ± 18 | 212 ± 38 | 48 | 129 ± 24 | 80 ± 17 | 88 ± 2 | 61 ± 10 | 41 to 212
2 | CC(C)(C)c1nc(-c2cccc(NS(=O)(=O)c3c(F)cccc3F)c2F)c(-c2ccnc(N)n2)s1 [Compound A, N-{3-[5-(2-amino-4-pyrimidinyl)-2-(1,1-dimethylethyl)-1,3-thiazol-4-yl]-2-fluorophenyl}-2,6-difluorobenzenesulfonamide] | > 10000 | > 10000 | > 10000 | 59 | > 10000 | > 10000 | > 10000 | > 10000 | –
